# Data: patent publication US5118705A, “Water soluble salts of purpuromycin and pharmaceutical formulations thereof” (Gruppo Lepetit S.p.A., priority 1990, dated 1992)
# “Also recorded” adds a separate entry of the source. Where a name gives a salt, the structure may show the parent alone. Read-outs that look alike come from different tables or passages of the source.
# How the values were obtained:
# [1] = test system: yeasts; details: cited from earlier work
# [2] = test system: Candida albicans ATCC 10231; assay: Activity against Candida strains, two-fold dilution method; format: cell-based; details: Candida albicans
# Experimental: (§1) This set of experiments included also one strain each of two other Candida species, Candida tropicalis and Candida kruzei. The M.I.C. were determined by the two-fold dilution method in buffered (0.01 M phosphate buffer, pH 7.4) yeast nitrogen base medium (Difco) supplemented with 1.5 g/liter asparagine in microtiter trays. Inocula were approximately 10^4 colony forming units/ml. Incubation was for 20 h at 30° C. Purpuromycin was dissolved in DMSO and added to the cultures as above.
# [3] = test system: Candida albicans SKF 2270; assay: as above; format: cell-based; details: Candida albicans
# Experimental: as §1
# [4] = test system: Trichomonas vaginalis strain TVL; assay: Activity against Trichomonas vaginalis, two-fold tube dilution method; format: cell-based; details: Trichomonas vaginalis, 48 hours at 37° C.
# Experimental: Trichomonas vaginalis (applicant's internal code TVL) was grown on Trichomonas Culture Medium Base (Merck) plus 10% heat treated horse serum. Inoculum: approximately 10^5 organisms/ml. Incubation: 48 hours at 37° C.
# [5] = test system: Gardnerella vaginalis ATCC 14018 and other 11 clinical isolates; assay: Activity against Gardnerella vaginalis, standard two fold dilution methods; details: for Number of strains with MIC of 8 mcg/ml: MIC 8 mcg/ml
# Experimental: The strains were grown on Casman medium (Difco) plus 5% (v/v) whole rabbit blood and 0.15 (v/v) lysed rabbit blood. Inoculum size: approximately 10^4 colony forming units per spot. Incubation in an anaerobic hood: 48 hours at 37° C.
# [6] = Stability; format: physicochemical
# [7] = test system: Candida tropicalis L 243; assay: Activity against Candida strains, two-fold dilution method; format: cell-based; details: L243, 20 h at 30° C., pH 7.4
# Experimental: as §1, with “above. The following TABLE IV reports the MIC values for the whole set of strains.” for “above.”
# [8] = test system: Candida albicans (19 clinical isolates); assay: as above; format: cell-based; details: 20 h at 30° C., pH 7.4
# Experimental: as §1, with “above. The following TABLE IV reports the MIC values for the whole set of strains.” for “above.”
# [9] = test system: Candida kruzei L 244; assay: as above; format: cell-based; details: L244, 20 h at 30° C., pH 7.4
# Experimental: as §1, with “above. The following TABLE IV reports the MIC values for the whole set of strains.” for “above.”
# [10] = test system: Gram-positive and Gram-negative bacteria and fungi; details: reported in UK Patent 1455128 and U.S. Pat. No. 3,914,257; cited from earlier work
# [11] = test system: Trichomonas vaginalis TVL; assay: In vitro activity, M.I.C., microtiter trays; format: cell-based; details: salts calculated as weight of purpuromycin; 48 h, anaerobic hood, 37° C.
# Experimental: MIC were performed in flat-bottomed microtiter trays, with 0.2 ml per well. The medium was TYM modified basal medium (Merck) plus 10% horse serum (treated to inactivate complement). The inoculum was ca. 10^5 organisms/ml; incubation was for 48 h in an anaerobic hood (37° C.).The microtiter wells were read using an inverted light microscope. The MIC was taken as the lowest concentration at which no live (mobile) protozoa were seen.
# [12] = test system: Staph. epidermidis ATCC 12228; assay: In vitro activity, M.I.C., microbroth dilution; format: cell-based; details: salts calculated as weight of purpuromycin; 37° C., 20 h
# Experimental: (§2) MIC were determined by the microbroth dilution test. Bacteria were grown at 37° C., fungi at 30° C. Incubation was for 20 h, except for Propionibacterium acnes, Bacteroides fragilis, Neisseria gonorrhoeae, Haemophilus influenzae (48 h) and Trichophyton mentagrophytes (72h) Neisseria gonorrhoeae and Haemophilus influenzae were incubated in a CO2 -enriched (5%) atmosphere; Propionibacterium acnes and Bacteroides fragilis in an anaerobic hood. Media used were: Oxoid Iso-sensitest broth (Staphylococci, Enterococcus faecalis and Escherichia coli); Difco Todd-Hewitt broth (streptococci); Difco GC base broth with 1% BBL IsoVitaleX (Neisseria gonorrhoeae); Difco Brain-Heart Infusion broth with 1% Difco supplement C (Haemophilus influenzae); Difco Wilkins-Chalgren broth (Propionibacterium acnes and Bacteroides fragilis); Difco Yeast Nitrogen Base broth with 1.5 g/1 asparagine (Candida albicans); Difco Sabouraud-dextrose broth (Trichophyton mentagrophytes). Inocula were approximately 10^4 CFU/ml.
# [13] = test system: Staph. haemolyticus L602; assay: In vitro activity, M.I.C., microbroth dilution; format: cell-based; details: salts calculated as weight of purpuromycin; 37° C., 20 h
# Experimental: as §2
# [14] = test system: Propionibacterium acnes ATCC 6919; assay: In vitro activity, M.I.C., microbroth dilution; format: cell-based; details: salts calculated as weight of purpuromycin; 37° C., 48 h, anaerobic hood
# Experimental: as §2
# [15] = test system: Haemophilus influenzae ATCC 19418; assay: In vitro activity, M.I.C., microbroth dilution; format: cell-based; details: salts calculated as weight of purpuromycin; 37° C., 48 h, 5% CO2
# Experimental: as §2
# [16] = test system: Enterococcus faecalis ATCC 7080; assay: In vitro activity, M.I.C., microbroth dilution; format: cell-based; details: salts calculated as weight of purpuromycin; 37° C., 20 h
# Experimental: as §2
# [17] = test system: Staph. aureus Tour L 165; assay: In vitro activity, M.I.C., microbroth dilution; format: cell-based; details: salts calculated as weight of purpuromycin; 37° C., 20 h
# Experimental: as §2
# [18] = test system: Escherichia coli SKF 12140; assay: In vitro activity, M.I.C., microbroth dilution; format: cell-based; details: salts calculated as weight of purpuromycin; 37° C., 20 h
# Experimental: as §2
# [19] = test system: Neisseria gonorrhoeae L 997; assay: In vitro activity, M.I.C., microbroth dilution; format: cell-based; details: salts calculated as weight of purpuromycin; 37° C., 48 h, 5% CO2
# Experimental: as §2
# [20] = test system: Strep. pneumoniae L44; assay: In vitro activity, M.I.C., microbroth dilution; format: cell-based; details: salts calculated as weight of purpuromycin; 37° C., 20 h
# Experimental: as §2
# [21] = test system: Strep. pyogenes L49; assay: In vitro activity, M.I.C., microbroth dilution; format: cell-based; details: salts calculated as weight of purpuromycin; 37° C., 20 h
# Experimental: as §2
# [22] = test system: Candida albicans SKF 2270; assay: In vitro activity, M.I.C., microbroth dilution; format: cell-based; details: salts calculated as weight of purpuromycin; 30° C., 20 h
# Experimental: as §2
# [23] = test system: Bacteroides fragilis ATCC 23745; assay: In vitro activity, M.I.C., microbroth dilution; format: cell-based; details: salts calculated as weight of purpuromycin; 37° C., 48 h, anaerobic hood
# Experimental: as §2
# [24] = test system: Trichophyton mentagrophytes SKF 17410; assay: In vitro activity, M.I.C., microbroth dilution; format: cell-based; details: salts calculated as weight of purpuromycin; 30° C., 72 h
# Experimental: as §2
# [25] = test system: Gardnerella vaginalis; assay: In vitro activity, M.I.C., agar dilution; format: cell-based; details: salts calculated as weight of purpuromycin; ATCC 14018 and 10 clinical isolates, all same M.I.C.; inoculum ca. 10^5 CFU, 48 h
# Experimental: **The assay was carried out on strain ATCC 14018 and 10 clinical isolates
# Incubation was for 48 h in an anaerobic hood (37° C.); inoculum ca. 10^5 CFU.
# [26] = Solubility and pH of solution; format: physicochemical
# [27] = conjugate acid of the second basic group; cited from earlier work
# [28] = Biological activity (general statement); details: formed by hydrolysis of the carbomethoxy group of purpuromycin
smiles,measurement,setting,value
Cc1ncc([N+](=O)[O-])n1CCO [Metronidazole],activity against yeasts,[1],not active against yeasts
same,MIC,"[2]; ATCC10231, 20 h, comparative tests, antibacterial agents, read-out: M.I.C.",> 128 µg/mL
same,MIC,"[3]; SKF2270, 20 h, comparative tests, antibacterial agents, read-out: M.I.C.",> 128 µg/mL
same,MIC,[4]; read-out: MIC,0.25 µg/mL
same,MIC,"[5]; Gardnerella vaginalis, read-out: MIC on resistant strains",> 32 µg/mL
same,Number of strains with MIC of 4 mcg/ml,"[5]; MIC 4 mcg/ml, 12 strains tested",1 strains
same,Number of strains with MIC of 8 mcg/ml,[5]; 12 strains tested,3 strains
same,Number of strains with MIC of 16 mcg/ml,"[5]; MIC 16 mcg/ml, 12 strains tested",4 strains
same,Number of strains with MIC of 128 mcg/ml,"[5]; MIC 128 mcg/ml, 12 strains tested",3 strains
COC(=O)c1cc2cc3c(c(O)c2c(=O)o1)OC1(Cc2c(O)c4c(c(O)c2O1)C(=O)C(OC)=CC4=O)CC3O (stereo not drawn) [Purpuromycin],stability (in words),[6],hydrolysis of the carbomethoxy group; also recorded: undergoes a degradation process
same,MIC,[7],2 µg/mL
same,MIC,[8],1 to 4 µg/mL
same,MIC,[9],4 µg/mL
same,in vitro antimicrobial activity,[10],active in vitro against both Gram-positive and Gram-negative bacteria and fungi
same,M.I.C.,[11],4 mg/L
same,M.I.C.,[12],0.06 mg/L
same,M.I.C.,[13],0.06 mg/L
same,M.I.C.,[14],0.06 mg/L
same,M.I.C.,[15],0.06 mg/L
same,M.I.C.,[16],0.06 mg/L
same,M.I.C.,[17],0.06 mg/L
same,M.I.C.,[18],8 mg/L
same,M.I.C.,[19],0.06 mg/L
same,M.I.C.,[20],0.06 mg/L
same,M.I.C.,[21],0.06 mg/L
same,M.I.C.,[22],1 mg/L
same,M.I.C.,[23],0.13 mg/L
same,M.I.C.,[24],1 mg/L
same,M.I.C.,[25],16 mg/L
same,MIC,"[2]; ATCC10231, 20 h at 30° C., pH 7.4, read-out: MIC",0.5 µg/mL
same,MIC,"[3]; SKF2270, 20 h at 30° C., pH 7.4, read-out: MIC",1 µg/mL
same,MIC,"[4]; dissolved in DMSO, read-out: minimal inhibitory concentration (M.I.C.)",4 µg/mL
same,MIC,[4]; read-out: MIC,4 µg/mL
same,solubility,"[26]; buffer, pH 8.5, aqueous buffer, pH 8.5 buffer, read-out: solubility in water",22 µg/mL
same,solubility (in words),[26]; solvent,practically insoluble in water and in lower alkanols; also recorded: poorly soluble in most organic solvents
same,Number of strains with MIC of 8 mcg/ml,[5]; 12 strains tested,12 strains
COC(=O)c1cc2cc3c(c(O)c2c(=O)o1)OC1(Cc2c(O)c4c(c(O)c2O1)C(=O)C(OC)=CC4=O)CC3O (stereo not drawn) [arginine salt],stability (in words),[6],not sufficiently stable
N=C(N)NCCC[C@H](N)C(=O)O [arginine],pK3 value,[27],higher than 13
COC1=CC(=O)c2c(O)c3c(c(O)c2C1=O)OC1(C3)CC(O)c2cc3cc(C(=O)O)oc(=O)c3c(O)c2O1 (stereo not drawn) [carboxylic acid derivative],activity of degradation product,[28],almost inactive
